The values that follow come from ChEMBL document CHEMBL1146200, “In vitro activity of aurein 1.2 alone and in combination with antibiotics against gram-positive nosocomial cocci” (Antimicrob Agents Chemother, 2007).

Values after ≈ are worked out from the molar mass of the structure shown. Non-standard residues stand in square brackets, D forms with d. Residues, ends and D or L forms follow the SMILES beside them. Phg = N[C@H](C(=O)O)c1ccccc1

Series [1] deals with Staphylococcus aureus. The series is described as follows: Antimicrobial activity against […] Staphylococcus aureus ATCC 29213. It counts as functional. To be noted: for MIC50 / MIC90: Staphylococcus aureus, ATCC 29213.
The test system of another series is Streptococcus pyogenes. The series is described as follows: Antimicrobial activity against Streptococcus pyogenes ATCC 19615. The format is functional. Conditions: for MIC50 / MIC90: Streptococcus pyogenes, ATCC 19615.
The test system of series [2] is Enterococcus faecalis. The series is described as follows: Antimicrobial activity against vancomycin-resistant Enterococcus faecalis ATCC 51299. The format is functional. Conditions: for MIC50 / MIC90: Enterococcus faecalis, ATCC 51299.
In series [3] the test system is Staphylococcus aureus. The series is described as follows: Antimicrobial activity against […] Staphylococcus aureus ATCC 43300. The format is functional. Conditions: for MIC50 / MIC90: Staphylococcus aureus, ATCC 43300.
Series [4] deals with Enterococcus faecalis. The series is described as follows: Antimicrobial activity against vancomycin-susceptible Enterococcus faecalis ATCC 29212. The format is functional. Conditions: for MIC50 / MIC90: Enterococcus faecalis, ATCC 29212.
For the next series, the system named is A549. The series is described as follows: Cytotoxicity against human A549 cells. It counts as cell-based.

For orientation: MIC50 means the lowest concentration that inhibits either 50% of growth or 50% of the strains tested, depending on the study. A low value points to higher susceptibility. Usually MIC90 stands for the lowest concentration that inhibits either 90% of growth or 90% of the strains tested, depending on the study. Lower therefore signals higher susceptibility. Consider `CC[C@H](C)[C@H](NC(=O)[C@H](CCCCN)NC(=O)[C@H](CCCCN)NC(=O)[C@@H](NC(=O)[C@@H](NC(=O)[C@H](CC(=O)O)NC(=O)[C@H](Cc1ccccc1)NC(=O)[C@H](CC(C)C)NC(=O)CN)[C@@H](C)CC)[C@@H](C)CC)C(=O)N[C@@H](C)C(=O)N[C@@H](CCC(=O)O)C(=O)N[C@@H](CO)C(=O)N[C@H](C(N)=O)c1ccccc1` (H-GLFDIIKKIAES[Phg]-NH2), for which the MBC50 in the series with Staphylococcus aureus [1] stood at 8 µg/mL (≈ 5.46 µM); against Streptococcus pyogenes, 4 µg/mL (≈ 2.73 µM); against Enterococcus faecalis [2] it was 16 µg/mL (≈ 10.9 µM); in the series with Staphylococcus aureus [3], 8 µg/mL (≈ 5.46 µM); against Enterococcus faecalis [4], 16 µg/mL (≈ 10.9 µM). Moreover, the MBC90 with Staphylococcus aureus [1] is 16 µg/mL (≈ 10.9 µM); in the series with Streptococcus pyogenes, 8 µg/mL (≈ 5.46 µM); in the series on Enterococcus faecalis [2], 32 µg/mL (≈ 21.8 µM); against Staphylococcus aureus [3] it was 16 µg/mL (≈ 10.9 µM); in the series on Enterococcus faecalis [4], 32 µg/mL (≈ 21.8 µM). The MIC50 was 4 µg/mL (≈ 2.73 µM) with Staphylococcus aureus [1]; 2 µg/mL (≈ 1.36 µM) against Streptococcus pyogenes; 8 µg/mL (≈ 5.46 µM) with Enterococcus faecalis [2]; 4 µg/mL (≈ 2.73 µM) in the series on Staphylococcus aureus [3]; 8 µg/mL (≈ 5.46 µM) in the series on Enterococcus faecalis [4]. For the same compound, the MIC90 amounted to 8 µg/mL (≈ 5.46 µM) against Staphylococcus aureus [1]; 4 µg/mL (≈ 2.73 µM) in the series with Streptococcus pyogenes; 16 µg/mL (≈ 10.9 µM) with Enterococcus faecalis [2]; 8 µg/mL (≈ 5.46 µM) in the series on Staphylococcus aureus [3]; 16 µg/mL (≈ 10.9 µM) with Enterococcus faecalis [4]. This compound also registered an Activity in the series with A549 of 2%.
`CC[C@H]1OC(=O)[C@H](C)[C@@H](O[C@H]2C[C@@](C)(OC)[C@@H](O)[C@H](C)O2)[C@H](C)[C@@H](O[C@@H]2O[C@H](C)C[C@H](N(C)C)[C@H]2O)[C@](C)(OC)C[C@@H](C)C(=O)[C@H](C)[C@@H](O)[C@]1(C)O` [CLARITHROMYCIN]: the MBC50 with Staphylococcus aureus [1] turned out to be 32 µg/mL (≈ 42.8 µM); with Streptococcus pyogenes it was 8 µg/mL (≈ 10.7 µM); against Enterococcus faecalis [2] it was 32 µg/mL (≈ 42.8 µM); against Staphylococcus aureus [3], 16 µg/mL (≈ 21.4 µM); in the series on Enterococcus faecalis [4], 16 µg/mL (≈ 21.4 µM). Further, the MIC50 in the series with Staphylococcus aureus [1] worked out at 4 µg/mL (≈ 5.35 µM); with Streptococcus pyogenes it was 2 µg/mL (≈ 2.67 µM); with Enterococcus faecalis [2] it was 16 µg/mL (≈ 21.4 µM); against Staphylococcus aureus [3] it was 2 µg/mL (≈ 2.67 µM); with Enterococcus faecalis [4] it was 8 µg/mL (≈ 10.7 µM). Moreover, the MIC90 is 16 µg/mL (≈ 21.4 µM) against Staphylococcus aureus [1]; 8 µg/mL (≈ 10.7 µM) in the series on Streptococcus pyogenes; 64 µg/mL (≈ 85.6 µM) in the series with Enterococcus faecalis [2]; 8 µg/mL (≈ 10.7 µM) against Staphylococcus aureus [3]; 32 µg/mL (≈ 42.8 µM) against Enterococcus faecalis [4]. The MBC90 in the series on Streptococcus pyogenes is 32 µg/mL (≈ 42.8 µM); against Staphylococcus aureus [3], 64 µg/mL (≈ 85.6 µM); against Enterococcus faecalis [4] it was 128 µg/mL (≈ 171 µM).
As to `C[C@@H](O)[C@H]1C(=O)N2C(C(=O)O)=C(SCCNC=N)C[C@H]12` [IMIPENEM ANHYDROUS], the MBC50 against Staphylococcus aureus [1] came to 64 µg/mL (≈ 214 µM); against Streptococcus pyogenes, 1 µg/mL (≈ 3.34 µM); against Enterococcus faecalis [2] it was 32 µg/mL (≈ 107 µM); against Staphylococcus aureus [3] it was 4 µg/mL (≈ 13.4 µM); in the series on Enterococcus faecalis [4], 16 µg/mL (≈ 53.4 µM). Besides, the MBC90 in the series on Staphylococcus aureus [1] was 256 µg/mL (≈ 855 µM); in the series on Streptococcus pyogenes it was 4 µg/mL (≈ 13.4 µM); in the series on Enterococcus faecalis [2], 128 µg/mL (≈ 428 µM); with Staphylococcus aureus [3], 16 µg/mL (≈ 53.4 µM); against Enterococcus faecalis [4] it was 64 µg/mL (≈ 214 µM). The MIC50 came to 16 µg/mL (≈ 53.4 µM) with Staphylococcus aureus [1]; 0.5 µg/mL (≈ 1.67 µM) with Streptococcus pyogenes; 16 µg/mL (≈ 53.4 µM) with Enterococcus faecalis [2]; 1 µg/mL (≈ 3.34 µM) in the series on Staphylococcus aureus [3]; 4 µg/mL (≈ 13.4 µM) with Enterococcus faecalis [4]. Moreover, the MIC90 amounted to 128 µg/mL (≈ 428 µM) in the series on Staphylococcus aureus [1]; 1 µg/mL (≈ 3.34 µM) with Streptococcus pyogenes; 32 µg/mL (≈ 107 µM) in the series on Enterococcus faecalis [2]; 4 µg/mL (≈ 13.4 µM) in the series on Staphylococcus aureus [3]; 16 µg/mL (≈ 53.4 µM) in the series on Enterococcus faecalis [4].
Consider `CC(=O)NC[C@H]1CN(c2ccc(N3CCOCC3)c(F)c2)C(=O)O1` [LINEZOLID], for which the MIC50 in the series with Staphylococcus aureus [1] turned out to be 0.5 µg/mL (≈ 1.48 µM); in the series with Streptococcus pyogenes it was 0.5 µg/mL (≈ 1.48 µM); against Enterococcus faecalis [2], 1 µg/mL (≈ 2.96 µM); in the series on Staphylococcus aureus [3], 0.5 µg/mL (≈ 1.48 µM); with Enterococcus faecalis [4], 1 µg/mL (≈ 2.96 µM). Besides, the MIC90 in the series with Staphylococcus aureus [1] was 2 µg/mL (≈ 5.93 µM); with Streptococcus pyogenes, 1 µg/mL (≈ 2.96 µM); with Enterococcus faecalis [2], 2 µg/mL (≈ 5.93 µM); against Staphylococcus aureus [3] it was 2 µg/mL (≈ 5.93 µM); in the series on Enterococcus faecalis [4], 2 µg/mL (≈ 5.93 µM). Moreover, the MBC50 is 1 µg/mL (≈ 2.96 µM) against Streptococcus pyogenes, 4 µg/mL (≈ 11.9 µM) against Enterococcus faecalis [2], 0.5 µg/mL (≈ 1.48 µM) against Staphylococcus aureus [3] and 2 µg/mL (≈ 5.93 µM) in the series with Enterococcus faecalis [4]. Moreover, the figures for the MBC90 in the series on Streptococcus pyogenes, in the series with Staphylococcus aureus [3] and with Enterococcus faecalis [4] were 2 µg/mL (≈ 5.93 µM), 2 µg/mL (≈ 5.93 µM) and 4 µg/mL (≈ 11.9 µM), respectively.
As to `CN(C)c1ccc(O)c2c1C[C@H]1C[C@H]3[C@H](N(C)C)C(O)=C(C(N)=O)C(=O)[C@@]3(O)C(O)=C1C2=O` [MINOCYCLINE], the MIC50 turned out to be 4 µg/mL (≈ 8.74 µM) against Staphylococcus aureus [1]; 4 µg/mL (≈ 8.74 µM) against Streptococcus pyogenes; 16 µg/mL (≈ 35 µM) against Enterococcus faecalis [2]; 4 µg/mL (≈ 8.74 µM) against Staphylococcus aureus [3]; 8 µg/mL (≈ 17.5 µM) against Enterococcus faecalis [4]. The MIC90 in the series with Staphylococcus aureus [1] turned out to be 8 µg/mL (≈ 17.5 µM); in the series with Streptococcus pyogenes, 8 µg/mL (≈ 17.5 µM); in the series on Enterococcus faecalis [2], 32 µg/mL (≈ 69.9 µM); against Staphylococcus aureus [3], 8 µg/mL (≈ 17.5 µM); against Enterococcus faecalis [4] it was 16 µg/mL (≈ 35 µM). Moreover, the MBC50 against Streptococcus pyogenes came to 8 µg/mL (≈ 17.5 µM); against Staphylococcus aureus [3], 8 µg/mL (≈ 17.5 µM); in the series with Enterococcus faecalis [4] it was 16 µg/mL (≈ 35 µM). The MBC90 turned out to be 16 µg/mL (≈ 35 µM) in the series on Streptococcus pyogenes, 32 µg/mL (≈ 69.9 µM) with Staphylococcus aureus [3] and 64 µg/mL (≈ 140 µM) against Enterococcus faecalis [4].
As for `CN[C@H](CC(C)C)C(=O)N[C@H]1C(=O)N[C@@H](CC(N)=O)C(=O)N[C@H]2C(=O)N[C@H]3C(=O)N[C@H](C(=O)N[C@H](C(=O)O)c4cc(O)cc(O)c4-c4cc3ccc4O)[C@H](O)c3ccc(c(Cl)c3)Oc3cc2cc(c3O[C@@H]2O[C@H](CO)[C@@H](O)[C@H](O)[C@H]2O[C@H]2C[C@](C)(N)[C@H](O)[C@H](C)O2)Oc2ccc(cc2Cl)[C@H]1O` [VANCOMYCIN], the MBC50 was 1 µg/mL (≈ 0.69 µM) in the series with Staphylococcus aureus [1]; 1 µg/mL (≈ 0.69 µM) in the series with Streptococcus pyogenes; 64 µg/mL (≈ 44.2 µM) with Enterococcus faecalis [2]; 1 µg/mL (≈ 0.69 µM) in the series with Staphylococcus aureus [3]; 2 µg/mL (≈ 1.38 µM) against Enterococcus faecalis [4]. In addition, the MBC90 against Staphylococcus aureus [1] was 2 µg/mL (≈ 1.38 µM); in the series with Streptococcus pyogenes it was 2 µg/mL (≈ 1.38 µM); in the series with Enterococcus faecalis [2], 256 µg/mL (≈ 177 µM); against Staphylococcus aureus [3] it was 2 µg/mL (≈ 1.38 µM); against Enterococcus faecalis [4] it was 4 µg/mL (≈ 2.76 µM). In addition, the MIC50 was determined as 1 µg/mL (≈ 0.69 µM) in the series on Staphylococcus aureus [1]; 0.5 µg/mL (≈ 0.345 µM) in the series with Streptococcus pyogenes; 32 µg/mL (≈ 22.1 µM) in the series with Enterococcus faecalis [2]; 1 µg/mL (≈ 0.69 µM) against Staphylococcus aureus [3]; 1 µg/mL (≈ 0.69 µM) against Enterococcus faecalis [4]. Also, the MIC90 against Staphylococcus aureus [1] was determined as 2 µg/mL (≈ 1.38 µM); with Streptococcus pyogenes, 1 µg/mL (≈ 0.69 µM); in the series on Enterococcus faecalis [2], 64 µg/mL (≈ 44.2 µM); in the series on Staphylococcus aureus [3], 2 µg/mL (≈ 1.38 µM); with Enterococcus faecalis [4] it was 2 µg/mL (≈ 1.38 µM).
